# Source: patent publication US20140163061A1, “Methods For Reducing Blood Pressure” (FibroGen, Inc., priority 2008, published 2014)
# Assays:
# [1] = test system: human subjects with chronic kidney disease; test: Blood pressure in human CKD subjects over a 24 hour period after oral dosing, Example 5; assay type: in vivo
# Method: Hypertension is a common condition in patients with chronic kidney disease. (Agarwal et al. (2005) Hypertension 46:514-520.) The effect of a compound of the present invention on blood pressure in anemic and non-anemic human subjects with advanced stage chronic kidney disease was examined. All study subjects had chronic kidney disease (CKD), defined as having a glomerular filtration rate (GFR)<59 ml/min. Some of these CKD subjects also had anemia, defined as having hemoglobin (Hb) levels<11 g/dL. Subjects were orally administered compound A or a placebo two or three times per week for four weeks. Blood pressure readings (i.e. systolic, diastolic, and mean arterial pressure) were taken at various times with a sphygmomanometer according to standard assessments. In one series of experiments, the effect of methods and medicaments of the present invention on blood pressure in anemic and non-anemic subjects with advanced stage chronic kidney disease was examined over a 24 hour period. Subjects were orally administered compound A or a placebo and blood pressure readings were taken at 1, 2, 3, 4, 6, 12, and 24 hours following treatment. […] Table 3, Table 4, and Table 5 below show hourly changes in mean arterial pressure (MAP), systolic blood pressure (SBP), and diastolic blood pressure (DBP) following oral administration of […] to human CKD subjects.
# [2] = test system: Nx rats (5/6 nephrectomy, hypertensive chronic kidney disease); test: Nx rats treated with various HIF prolyl hydroxylase inhibitors, change in systolic blood pressure after four weeks, Example 4; assay type: in vivo, rat; settings: 40 mg/kg oral
# Method: (§1) A characteristic pathophysiology found in the uremic chronic kidney disease (CKD) population is hypertension. […] (Priyadarshi et al. (2002) Kidney Int 61:542-546; Coleman et al. (2006) Proc Natl Acad Sci USA 103:5965-5970.) The surgical procedure used to generate the rat remnant kidney was performed according to modification of the procedure described by Priyadarshi et al. (supra) or according to modification of the procedure described by Tanaka et al. (2005, Lab Invest 85:1292-1307). Separate studies used either male Sprague Dawley rats (280-300 g) or female Wistar rats (220-250 g).
# Animals were divided into two groups of which one group (sham) underwent sham surgery and the other group (Nx) was subjected to 5/6 nephrectomy as follows. Animals were anesthetized under isoflurane, and a midline abdominal incision was made, followed by blunt dissection of the renal pedicles. Two or three branches of the left renal artery were ligated to infarct two thirds of the left kidney, while the right kidney underwent simultaneous nephrectomy. The infarct was verified by observing the change in kidney color. Animal body temperature was maintained constant, and warm (˜37° C.) saline (1.0 mL) was administered directly into the abdomen. Thereafter, the incision was sutured and the animal was allowed to recover and have free access to regular food and water. Animal body weight and mortality were closely monitored.
# Starting 35 days after surgery, Nx and sham animals were randomly divided into groups and treated with either vehicle or compound A. Compound was dosed three times per week by oral gavage at 20 or 40 mg/kg compound per dose. Blood pressure (BP) was measured using a Kent XBP1000 system (Kent Scientific Corp., Torrington, Conn.) or a Muromachi tail-cuff blood pressure system (Muromachi Kikai Co., Ltd., Tokyo, Japan), both having volume/pressure recording technology and used according to the manufacturer's instruction. Rats were slightly warmed under a lamp and conditioned carefully before the measurement. BP was recorded as the mean value of 3 separate measurements obtained at each session and reported herein as mean±SEM. Results are compared using 1-way analysis of variance (ANOVA) and Student-Newman-Keuls method (SigmaStat, SPSS Science, Chicago, Ill.).
# In another series of experiments, rats subjected to 5/6 nephrectomy were treated 35 days after surgery according to the dosing schedule described in Example 3 above with a HIF prolyl hydroxylase inhibitor. Individual compound selected from the group consisting of compounds A and C-K were administered by oral gavage at 8, 20, 30, or 40 mg/kg (see Table 1 and Table 2). Systolic blood pressure was recorded at day 35 (baseline) and again immediately following the last dose of compound. Table 1 and Table 2 show changes in systolic blood pressure following four weeks of oral administration of various compounds of the present invention to Nx rats.
# [3] = test system: Nx rats (5/6 nephrectomy, hypertensive chronic kidney disease); test: Rat remnant kidney model (5/6 nephrectomy) of CKD, tail-cuff systolic blood pressure, Example 3; assay type: in vivo; settings: mean±SEM, p<0.05 vs vehicle-treated Nx rats (195.7±24.4)
# Method: as §1
# Animals were divided into two groups of which one group (sham) underwent sham surgery and the other group (Nx) was subjected to 5/6 nephrectomy as follows. […] Animal body weight and mortality were closely monitored.
# Starting 35 days after surgery, Nx and sham animals were randomly divided into groups and treated with either vehicle or compound A. Compound was dosed three times per week by oral gavage at 20 or 40 mg/kg compound per dose. Blood pressure (BP) was measured using a Kent XBP1000 system (Kent Scientific Corp., Torrington, Conn.) or a Muromachi tail-cuff blood pressure system (Muromachi Kikai Co., Ltd., Tokyo, Japan), both having volume/pressure recording technology and used according to the manufacturer's instruction. […]
smiles,measurement,setting,value
"Cc1nc(C(=O)NCC(=O)O)c(O)c2ccc(Oc3ccccc3)cc12 [A, [(4-hydroxy-1-methyl-7-phenoxy-isoquinoline-3-carbonyl)-amino]-acetic acid]",Mean change from Baseline Diastolic BP (mmHg),"[1]; All Subjects, 3 hour",−5.45 mmHg
same,Mean change from Baseline MAP (mmHg),"[1]; All Subjects, 3 hour",−4.35 mmHg
same,Mean change from Baseline Systolic BP (mmHg),"[1]; All Subjects, 3 hour",−2.09 mmHg
same,Mean change from Baseline Diastolic BP (mmHg),"[1]; All Subjects, 4 hour",−6.36 mmHg
same,Mean change from Baseline MAP (mmHg),"[1]; All Subjects, 4 hour",−6.60 mmHg
same,Mean change from Baseline Systolic BP (mmHg),"[1]; All Subjects, 4 hour",−7.00 mmHg
same,Mean change from Baseline Diastolic BP (mmHg),"[1]; All Subjects, 6 hour",−7.00 mmHg
same,Mean change from Baseline MAP (mmHg),"[1]; All Subjects, 6 hour",−9.18 mmHg
same,Mean change from Baseline Systolic BP (mmHg),"[1]; All Subjects, 6 hour",−13.45 mmHg
same,Mean change from Baseline Diastolic BP (mmHg),"[1]; All Subjects, 12 hour",−2.55 mmHg
same,Mean change from Baseline MAP (mmHg),"[1]; All Subjects, 12 hour",−3.29 mmHg
same,Mean change from Baseline Systolic BP (mmHg),"[1]; All Subjects, 12 hour",−4.73 mmHg
same,Mean change from Baseline Diastolic BP (mmHg),"[1]; All Subjects, 24 hour",−1.55 mmHg
same,Mean change from Baseline MAP (mmHg),"[1]; All Subjects, 24 hour",−2.55 mmHg
same,Mean change from Baseline Systolic BP (mmHg),"[1]; All Subjects, 24 hour",−4.45 mmHg
same,Mean change from Baseline Diastolic BP (mmHg),"[1]; Anemic, 3 hour",−13.67 mmHg
same,Mean change from Baseline MAP (mmHg),"[1]; Anemic, 3 hour",−11.10 mmHg
same,Mean change from Baseline Systolic BP (mmHg),"[1]; Anemic, 3 hour",−6.33 mmHg
same,Mean change from Baseline Diastolic BP (mmHg),"[1]; Anemic, 4 hour",−12.67 mmHg
same,Mean change from Baseline MAP (mmHg),"[1]; Anemic, 4 hour",−14.67 mmHg
same,Mean change from Baseline Systolic BP (mmHg),"[1]; Anemic, 4 hour",−19.00 mmHg
same,Mean change from Baseline Diastolic BP (mmHg),"[1]; Anemic, 6 hour",−10.00 mmHg
same,Mean change from Baseline MAP (mmHg),"[1]; Anemic, 6 hour",−12.33 mmHg
same,Mean change from Baseline Systolic BP (mmHg),"[1]; Anemic, 6 hour",−17.33 mmHg
same,Mean change from Baseline Diastolic BP (mmHg),"[1]; Anemic, 12 hour",−5.00 mmHg
same,Mean change from Baseline MAP (mmHg),"[1]; Anemic, 12 hour",−2.00 mmHg
same,Mean change from Baseline Systolic BP (mmHg),"[1]; Anemic, 12 hour",3.67 mmHg
same,Mean change from Baseline Diastolic BP (mmHg),"[1]; Anemic, 24 hour",−3.33 mmHg
same,Mean change from Baseline MAP (mmHg),"[1]; Anemic, 24 hour",−3.77 mmHg
same,Mean change from Baseline Systolic BP (mmHg),"[1]; Anemic, 24 hour",−5.00 mmHg
same,Mean change from Baseline Diastolic BP (mmHg),"[1]; Non-Anemic, 3 hour",−2.38 mmHg
same,Mean change from Baseline MAP (mmHg),"[1]; Non-Anemic, 3 hour",−3.81 mmHg
same,Mean change from Baseline Systolic BP (mmHg),"[1]; Non-Anemic, 3 hour",−0.50 mmHg
same,Mean change from Baseline Diastolic BP (mmHg),"[1]; Non-Anemic, 4 hour",−4.00 mmHg
same,Mean change from Baseline MAP (mmHg),"[1]; Non-Anemic, 4 hour",−3.58 mmHg
same,Mean change from Baseline Systolic BP (mmHg),"[1]; Non-Anemic, 4 hour",−2.50 mmHg
same,Mean change from Baseline Diastolic BP (mmHg),"[1]; Non-Anemic, 6 hour",−5.88 mmHg
same,Mean change from Baseline MAP (mmHg),"[1]; Non-Anemic, 6 hour",−8.00 mmHg
same,Mean change from Baseline Systolic BP (mmHg),"[1]; Non-Anemic, 6 hour",−12.00 mmHg
same,Mean change from Baseline Diastolic BP (mmHg),"[1]; Non-Anemic, 12 hour",−1.63 mmHg
same,Mean change from Baseline MAP (mmHg),"[1]; Non-Anemic, 12 hour",−3.78 mmHg
same,Mean change from Baseline Systolic BP (mmHg),"[1]; Non-Anemic, 12 hour",−7.88 mmHg
same,Mean change from Baseline Diastolic BP (mmHg),"[1]; Non-Anemic, 24 hour",−0.88 mmHg
same,Mean change from Baseline MAP (mmHg),"[1]; Non-Anemic, 24 hour",−8.00 mmHg
same,Mean change from Baseline Systolic BP (mmHg),"[1]; Non-Anemic, 24 hour",−4.25 mmHg
same,blood pressure at 1 and 2 hours post dosing,"[1]; all CKD subjects, oral, same with placebo, data not shown",small increases in blood pressure
same,SBP (mmHg) Change from Baseline,[2],−31.10 mmHg
same,SBP (mmHg) Change from Vehicle,[2],−40.31 mmHg
same,systolic blood pressure (SBP),[3]; 20 mg/kg oral gavage three times per week,164.7±26.7 mmHg
same,systolic blood pressure (SBP),[3]; 40 mg/kg oral gavage three times per week,155.4±42.9 mmHg
